Data from patent US20080085884A1, “Melanin Concentrating Hormone Receptor-1 Antagonist Pyridinones” (Pfizer Inc, priority 2006, published 2008).
Structures can show the parent of a compound that is named as a salt.

Molecular target: T1, human MCHR1 (Homo sapiens, UniProt Q99705)
T1 construct: host or cells: CHO
Experiment: Cyclic AMP assay (MCHR-1 functional antagonism)
Type: cell-based
Details: CHO cells stably expressing human MCHR1; cAMP accumulation with 25 uM forskolin and 0.2 nM MCH, 90 min; Ki from IC50 by Cheng-Prusoff; read-out: MCHR-1 functional Ki
Experimental: CHO cell lines stably expressing the human MCHR1 (Euroscreen, Brussels, Belgium) were maintained in DMEM containing Glutamax (Invitrogen, Carlsbad, Calif.), 10% FBS, 400 ug/ml Geneticin.
Cyclic AMP assays. CHO cells stably expressing the human MCHR1 receptors were collected and resuspended at a density of 4.0×10^6 cells/ml in F12 (Hams) media and seeded (20,000 cells per well) into 384-well, solid white Greiner assay plates. […] Cells were incubated at 37° C./5% CO2 for 90 minutes and cAMP accumulation subsequently determined by DiscoveRx Hithunter c-AMP II Assay kit (GE Healthcare, Buckinghamshire, UK) in accordance with manufactures instructions. Luminescence was measured on a LEADseaker imaging system (GE Healthcare, Buckinghamshire, UK). IC50 values were calculated from dose-response data fit using an in-house computer graphics and statistics program.

T1 sequence (Q99705 whole entry): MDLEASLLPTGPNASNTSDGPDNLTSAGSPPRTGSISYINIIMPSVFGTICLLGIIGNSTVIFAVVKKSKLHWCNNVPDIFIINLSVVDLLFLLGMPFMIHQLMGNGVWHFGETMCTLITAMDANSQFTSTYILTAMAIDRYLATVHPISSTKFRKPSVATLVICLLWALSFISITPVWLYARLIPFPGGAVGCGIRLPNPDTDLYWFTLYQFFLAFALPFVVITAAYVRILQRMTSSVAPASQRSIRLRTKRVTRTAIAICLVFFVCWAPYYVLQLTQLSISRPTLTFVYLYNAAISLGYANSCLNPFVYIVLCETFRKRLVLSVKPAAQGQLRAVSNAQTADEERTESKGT

Going from O=c1cc(OCc2ccccc2)ccn1-c1ccc(N2C[C@@H]3CN(C4CCC4)C[C@@H]3C2)nc1 [Example 210] to O=c1cc(OCc2ccccc2)ccn1-c1ccc(N2CC(N3CCC3)C2)nc1 [Example 79], the Ki rises from 4.56 nM to 416 nM (91-fold).

Compared with COC(=O)N1CCN(c2ccc(-n3ccc(OCc4ccccc4)cc3=O)cn2)CC1 [Example 48], CC(=O)N1CCN(c2ccc(-n3ccc(OCc4ccccc4)cc3=O)cn2)CC1 [Example 1, 6′-(4-Acetylpiperazin-1-yl)-4-(benzyloxy)-2H-1,3′-bipyridin-2-one] is 15-fold lower in Ki: 705 nM for the first, 47.7 nM for the second.

Compared with O=c1cc(OCc2ccc(F)cc2)ccn1-c1ccc(N2CCC[C@@H](O)C2)nc1 [Example 87], O=c1cc(OCc2ccc(F)cc2)ccn1-c1ccc(N2CCC[C@H](O)C2)nc1 [Example 88] is 6-fold higher in Ki: 191 nM for the first, 1140 nM for the second.

Going from O=c1cc(OCc2ccc(Cl)cc2F)ccn1-c1ccc(N2CC[C@@H](O)C2)nc1 [Example 147] to O=c1cc(OCc2ccc(Cl)c(F)c2)ccn1-c1ccc(N2CC[C@@H](O)C2)nc1 [Example 146], the Ki rises from 26.2 nM to 60.1 nM (2.3-fold). The first binds more tightly here.

Going from CC(C)N1C[C@H]2CN(c3ccc(-n4ccc(OCc5ccc(F)cc5)cc4=O)cn3)C[C@H]2C1 [Example 207] to CC(=O)N1C[C@@H]2CN(c3ccc(-n4ccc(OCc5ccc(F)cc5)cc4=O)cn3)C[C@@H]2C1 [Example 164], the Ki rises from 6.51 nM to 66.8 nM (10-fold).

Going from N[C@H]1CCN(c2ccc(-n3ccc(OCc4ccccc4)cc3=O)cn2)C1 [Example 55, 6′-[(3S)-3-aminopyrrolidin-1-yl]-4-(benzyloxy)-2H-1,3′-bipyridin-2-one] to NC1CCN(c2ccc(-n3ccc(OCc4ccccc4)cc3=O)cn2)CC1 [Example 214], the Ki rises from 3.66 nM to 106 nM (29-fold).

Compared with NC1CN(c2ccc(-n3ccc(OCc4ccc(F)cc4)cc3=O)cn2)C1 [Example 35], O=c1cc(OCc2ccc(F)cc2)ccn1-c1ccc(N2CC(O)C2)nc1 [Example 91] is 1.7-fold higher in Ki: 232 nM for the first, 396 nM for the second.

Compared with CCO[C@H]1CCN(c2ccc(-n3ccc(OCc4ccccc4)cc3=O)cn2)C1 [Example 40], CCN[C@@H]1CCN(c2ccc(-n3ccc(OCc4ccccc4)cc3=O)cn2)C1 [Example 19, 4-(Benzyloxy)-6′-[(3R)-3-(ethylamino)pyrrolidin-1-yl]-2H-1,3′-bipyridin-2-one] is 5-fold lower in Ki: 34.1 nM for the first, 6.78 nM for the second.

Compared with O=c1cc(OCc2cccc(Cl)c2)ccn1-c1ccc(N2CC[C@@H](O)C2)nc1 [Example 144], CN[C@H]1CCN(c2ccc(-n3ccc(OCc4cccc(Cl)c4)cc3=O)cn2)C1 [Example 149] is 20-fold lower in Ki: 69.9 nM for the first, 3.46 nM for the second. The second binds more tightly here.

Compared with CNC1(C)CCN(c2ccc(-n3ccc(OCc4ccccc4)cc3=O)cn2)C1 (single isomer, unassigned) [Example 18a, 4-(Benzyloxy)-6′-[3-methyl-3-(methylamino)pyrrolidin-1-yl]-2H-1,3′-bipyridin-2-one], CC1(N)CCN(c2ccc(-n3ccc(OCc4ccccc4)cc3=O)cn2)C1 (single isomer, unassigned) [Example 17a, 6′-(3-Amino-3-methylpyrrolidin-1-yl)-4-(benzyloxy)-2H-1,3′-bipyridin-2-one] is 1.7-fold higher in Ki: 8.86 nM for the first, 15.3 nM for the second.

Going from O=c1cc(OCc2ccc(Cl)cc2)ccn1-c1ccc(N2C[C@H]3CNC[C@H]3C2)nc1 [Example 107] to O=c1cc(OCc2ccccc2)ccn1-c1ccc(N2C[C@H]3CNC[C@H]3C2)nc1 [Example 8, 4-(Benzyloxy)-6′-[(3aR,6aS)-hexahydropyrrolo[3,4-c]pyrrol-2(1H)-yl]-2H-1,3′-bipyridin-2-one dihydrochloride], the Ki rises from 5.43 nM to 8.67 nM (1.6-fold).

CC(C)C1CN(c2ccc(-n3ccc(OCc4ccccc4)cc3=O)cn2)CCN1 (stereo not shown) [Example 221] and O=c1cc(OCc2ccccc2)ccn1-c1ccc(N2CC[C@H](O)C2)nc1 [Example 16, 4-(benzyloxy)-6′-[(3S)-3-hydroxypyrrolidin-1-yl]-2H-1,3′-bipyridin-2-one] are within 1.5-fold of each other in Ki: 126 nM for the first, 133 nM for the second.

Going from CN[C@H]1CCN(c2ccc(-n3ccc(OCc4ccc(Cl)c(F)c4)cc3=O)cn2)C1 [Example 152] to CN[C@@H]1CCN(c2ccc(-n3ccc(OCc4ccccc4)cc3=O)cn2)C1 [Example 15, 4-(benzyloxy)-6′-[(3R)-3-(methylamino)pyrrolidin-1-yl]-2H-1,3′-bipyridin-2-one dihydrochloride], the Ki rises from 2.31 nM to 3.62 nM (1.6-fold). The first binds more tightly here.

Going from CC(C)(C)OC(=O)N1C[C@@H]2CN(c3ccc(-n4ccc(OCc5ccccc5)cc4=O)cn3)C[C@@H]2C1 [Example 4, tert-Butyl (3aR,6aS)-5-[4-(benzyloxy)-2-oxo-2H-1,3′-bipyridin-6′-yl]hexahydropyrrolo[3,4-c]pyrrole-2(1H)-carboxylate] to CCC(=O)N1C[C@@H]2CN(c3ccc(-n4ccc(OCc5ccc(F)cc5)cc4=O)cn3)C[C@@H]2C1 [Example 171], the Ki falls from 1950 nM to 38.1 nM (51-fold). The second binds more tightly here.

CC1(O)CCN(c2ccc(-n3ccc(OCc4ccccc4)cc3=O)cn2)CC1 [Example 44] and CC1(O)CCN(c2ccc(-n3ccc(OCc4ccccc4)cc3=O)cn2)C1 (stereo not shown) [Example 240] are within 1.5-fold of each other in Ki: 113 nM for the first, 77.5 nM for the second.

Going from CCC(=O)N1CCN(c2ccc(-n3ccc(OCc4ccc(F)cc4)cc3=O)cn2)CC1 [Example 168] to O=c1cc(OCc2ccc(F)cc2)ccn1-c1ccc(N2CCC2)nc1 [Example 90], the Ki falls from 539 nM to 96.7 nM (5.6-fold). The second binds more tightly here.

First: CC(=O)N[C@@H]1CCN(c2ccc(-n3ccc(OCc4ccc(Cl)cc4)cc3=O)cn2)C1 [Example 175]
Second: CC(=O)N(C)[C@@H]1CCN(c2ccc(-n3ccc(OCc4ccc(Cl)cc4)cc3=O)cn2)C1 [Example 172]
The Ki of the first is 5.3-fold higher: 58.5 nM for the first, 11 nM for the second. The second binds more tightly here.

O=c1cc(OCc2ccccc2)ccn1-c1ccc(N2CCNCC2)nc1 [Example 2, 4-(Benzyloxy)-6′-piperazin-1-yl-2H-1,3′-bipyridin-2-one] and O=c1cc(OCc2ccccc2)ccn1-c1ccc(N2CCC2)nc1 [Example 59] are within 1.5-fold of each other in Ki: 89.9 nM for the first, 68.3 nM for the second.

First: COC(=O)NC1CN(c2ccc(-n3ccc(OCc4ccc(F)cc4)cc3=O)cn2)C1 [Example 193]
Second: COC(=O)N(C)[C@H]1CCN(c2ccc(-n3ccc(OCc4ccc(F)cc4)cc3=O)cn2)C1 [Example 180]
The Ki of the first is 8.8-fold higher: 196 nM for the first, 22.2 nM for the second. The second binds more tightly here.

Going from CC(C)C(=O)N1CCN(c2ccc(-n3ccc(OCc4ccccc4)cc3=O)cn2)CC1 [Example 166] to CC(C)C1(O)CCN(c2ccc(-n3ccc(OCc4ccccc4)cc3=O)cn2)C1 (stereo not shown) [Example 45], the Ki falls from 1210 nM to 270 nM (4.5-fold).

Going from CCN(C(C)=O)[C@H]1CCN(c2ccc(-n3ccc(OCc4ccccc4)cc3=O)cn2)C1 [Example 161] to CC(=O)N(C)[C@H]1CCN(c2ccc(-n3ccc(OCc4ccccc4)cc3=O)cn2)C1 [Example 20, N-{(3S)-1-[4-(Benzyloxy)-2-oxo-2H-1,3′-bipyridin-6′-yl]pyrrolidin-3-yl}-N-methylacetamide], the Ki falls from 33.3 nM to 15.2 nM (2.2-fold). The second binds more tightly here.

Going from CCC(=O)N[C@@H]1CCN(c2ccc(-n3ccc(OCc4ccccc4)cc3=O)cn2)C1 [Example 196] to CCCC(=O)N[C@H]1CCN(c2ccc(-n3ccc(OCc4ccccc4)cc3=O)cn2)C1 [Example 169], the Ki falls from 605 nM to 19.4 nM (31-fold).

Going from CNC1CCN(c2ccc(-n3ccc(OCc4ccccc4)cc3=O)cn2)CC1 [Example 58] to O=c1cc(OCc2ccccc2)ccn1-c1ccc(N2CCCC2)nc1 [Example 34, 4-(benzyloxy)-6′-pyrrolidin-1-yl-2H-1,3′-bipyridin-2-one], the Ki rises from 28.8 nM to 54.3 nM (1.9-fold). The first binds more tightly here.

First: O=c1cc(OCc2ccc(F)cc2)ccn1-c1ccc(N2CC[C@H](O)C2)nc1 [Example 114]
Second: O=c1cc(OCc2ccccc2)ccn1-c1ccc(N2CC[C@@H](O)C2)nc1 [Example 11, 4-(Benzyloxy)-6′-[(3R)-3hydroxypyrrolidin-1-yl]-2H-1,3′-bipyridin-2-one]
The Ki of the first is 2-fold lower: 47.9 nM for the first, 97.2 nM for the second. The first binds more tightly here.

Compared with CNC1CCN(c2ccc(-n3ccc(OCc4ccccc4)cc3=O)cn2)CC1 [Example 230], COCC1CCCN(c2ccc(-n3ccc(OCc4ccccc4)cc3=O)cn2)CC1 (stereo not shown) [Example 233] is 4-fold lower in Ki: 69.8 nM for the first, 17.6 nM for the second.

Going from CN(C(=O)OC(C)(C)C)[C@H]1CCN(c2ccc(-n3ccc(OCc4ccccc4)cc3=O)nn2)C1 [Example 156] to COC(=O)N(C)[C@H]1CCN(c2ccc(-n3ccc(OCc4ccccc4)cc3=O)cn2)C1 [Example 181], the Ki falls from 230 nM to 10.9 nM (21-fold).

Compared with O=c1cc(OCc2ccc(F)cc2)ccn1-c1ccc(N2CC(N3CCCC3)C2)nc1 [Example 95], O=c1cc(OCc2ccccc2)ccn1-c1ccc(N2CCC(N3CCCC3)C2)nc1 (stereo not shown) [Example 63] is 12-fold lower in Ki: 147 nM for the first, 12.1 nM for the second.

Compared with CN(C(=O)OC(C)(C)C)[C@H]1CCN(c2ccc(-n3ccc(OCc4ccc(Cl)cc4)cc3=O)cn2)C1 [Example 198], O=c1cc(OCc2ccc(Cl)c(Cl)c2)ccn1-c1ccc(N2CC[C@@H](O)C2)nc1 [Example 204] is 31-fold higher in Ki: 10.6 nM for the first, 330 nM for the second.

Compared with COC(=O)N[C@@H]1CCN(c2ccc(-n3ccc(OCc4ccccc4)cc3=O)cn2)C1 [Example 188], CNC1(C)CCN(c2ccc(-n3ccc(OCc4ccccc4)cc3=O)cn2)C1 (single isomer, unassigned) [Example 18b, 4-(Benzyloxy)-6′-[3-methyl-3-(methylamino)pyrrolidin-1-yl]-2H-1,3′-bipyridin-2-one] is 12-fold lower in Ki: 218 nM for the first, 18.3 nM for the second.

First: N[C@@H]1[C@H]2CN(c3ccc(-n4ccc(OCc5ccccc5)cc4=O)cn3)C[C@@H]12 [Example 217]
Second: O=c1cc(OCc2ccccc2)ccn1-c1ccc(N2C[C@H]3C[C@@H]2CN3)nc1 [Example 231]
The Ki of the first is 68-fold lower: 11 nM for the first, 752 nM for the second. The first binds more tightly here.

Same assay, conditions: MCHR-1 functional Ki (nM), CHO cells stably expressing human MCHR1; cAMP accumulation with 25 uM forskolin and 0.2 nM MCH, 90 min; Ki from IC50 by Cheng-Prusoff

For N[C@@H]1CCN(c2ccc(-n3ccc(OCc4ccccc4)cc3=O)cn2)C1 [Example 54], the Ki was 5.91 nM.
